Results taken from US20080206770A1, “SCREENING METHODS USED TO IDENTIFY COMPOUNDS THAT MODULATE SKIN STROMAL CELLS (FIBROBLASTS) ABILITY TO MODIFY FUNCTION OF EXTRACELLULAR MATRIX” (priority 2007, published 2008).
Each block holds one substance with its values, some of them ahead of it.

Assays:
[1] = system: dermal fibroblasts isolated from 17 individuals; test: Real time RT-PCR of ECM components, nuclear hormone receptors and coregulators in fibroblasts from 17 individuals; format: cell-based, human; conditions: 24 hours
Description: Total RNA was extracted from cells using RNA aqueous kit (Ambion, USA). First-strand cDNAs were synthesized with Superscript III reverse transcriptase (Invitrogen, USA) and 1 μg of total RNA using oligo d(T) priming in a final reaction volume of 40 μL.
Levels of specific mRNAs were measured by real-time RT-PCR using Platinum SYBR Green qPCR SuperMix UDG (Invitrogen) according the protocol on the LightCycler 2.0 (Roche, US). The cycling program steps were: for one cycle 50° C. 2 min, for one cycle 95° C. 2 min and for 45 cycles: 95° C. 10 s, 60° C. 10 s, 72° C. 10 s. All samples were run in triplicates. Results were analyzed with the comparative Ct method (from Applied Biosystems manual; Livak and Schmittgen, 2001). Every sample was normalized for the housekeeping gene GAPDH. Transcript levels in the atRA and TGFb1 treated samples were compared to control samples.

[2] = system: skin fibroblasts from 30 individuals; test: Combined score of expression stimulation of 5 genes in fibroblast isolates (FIG. 1); format: cell-based, human; conditions: 24 hour treatment, atRA 10^-7 M, Matrixyl 1 μM, KappaElastin 1 μM
Description: Human dermal fibroblasts were grown in DMEM cell culture media containing 10% fetal bovine serum and 1% penicillin/streptomycin (Invitrogen). For all experiments, third-passage fibroblasts were used one day after reaching confluence. […] After 24 hour treatment RNA and protein was isolated and analyzed for the expression of components of ECM and transcriptional regulators.
Total RNA from various human tissues was purified using RNAwiz (Ambion, USA) and subjected to subsequent DNase I treatment using the DNA-Free kit (Ambion). Total RNA from cancer cells was purified by using 4PCRmini kit (Ambion). First-strand cDNAs were synthesized with Superscript III reverse transcriptase (Invitrogen, USA) and 5 μg of total RNA using oligo d(T) priming in a final reaction volume of 50 μL
The cDNA was amplified by PCR using the 2.5 U Hot-Firepol (Solis BioDyne, Estonia) and buffer Yellow (Naxo, Estonia). Reaction was performed in a 10 ul volume, using 0.5 ul cDNA as a template. Following primer sets were designed for this study:
The combined score of expression stimulation of 5 genes was calculated and blotted for each fibroblast isolate. […] This biological variation provides a good biological rational to use molecular diagnostics for matching cosmetics product and skin cells of specific individual (personalized cosmetics).

[3] = fibroblasts from 17 individuals, 10 ng/ml

expression of metalloproteinases and PPARγ ([1]; 10 ng/ml, 17 individuals): suppresses significantly
gene expression of majority of collagens ([1]; 10 ng/ml, 17 individuals): strongly upregulated
individual variation of collagen gene expression between individual fibroblasts ([1]; 10 ng/ml, 17 individuals): up to 13 fold
variation of expression of PPARγ between different individuals ([1]; 10 ng/ml, 17 individuals): up to 17 fold
effect on gene expression of different ECM genes compared with atRA ([1]; TGFβ1 10 ng/ml vs atRA 1 μM): noticeably stronger
CBP expression in TGFbeta1 treatment compared to control, from-to between individuals [1, 3]: (from −2.24 to 2.29) fold
COL1A1 expression in TGFbeta1 treatment compared to control, from-to between individuals [1, 3]: (from −1.11 to 7.75) fold
COL1A2 expression in TGFbeta1 treatment compared to control, from-to between individuals [1, 3]: (from 1.14 to 9.58) fold
COL3A1 expression in TGFbeta1 treatment compared to control, from-to between individuals [1, 3]: (from −1.75 to 6.82) fold
COL4A1 expression in TGFbeta1 treatment compared to control, from-to between individuals [1, 3]: (from 2.52 to 16.22) fold
COL5A1 expression in TGFbeta1 treatment compared to control, from-to between individuals [1, 3]: (from −1.61 to 6.08) fold
COL5A2 expression in TGFbeta1 treatment compared to control, from-to between individuals [1, 3]: (from 1.3 to 3.42) fold
CTGF expression in TGFbeta1 treatment compared to control, from-to between individuals [1, 3]: (from −1.8 to 11.00) fold
ELN expression in TGFbeta1 treatment compared to control, from-to between individuals [1, 3]: (from −3.33 to 10.63) fold
FN 1 transcr.v.1 expression in TGFbeta1 treatment compared to control, from-to between individuals [1, 3]: (from −3.23 to 3.75) fold
Individual variation of gene expression in TGFbeta1 treatment: CBP [1, 3]: 4.53 fold
Individual variation of gene expression in TGFbeta1 treatment: COL1A1 [1, 3]: 8.86 fold
Individual variation of gene expression in TGFbeta1 treatment: COL1A2 [1, 3]: 8.44 fold
Individual variation of gene expression in TGFbeta1 treatment: COL3A1 [1, 3]: 8.57 fold
Individual variation of gene expression in TGFbeta1 treatment: COL4A1 [1, 3]: 13.7 fold
Individual variation of gene expression in TGFbeta1 treatment: COL5A1 [1, 3]: 7.69 fold
Individual variation of gene expression in TGFbeta1 treatment: COL5A2 [1, 3]: 2.12 fold
Individual variation of gene expression in TGFbeta1 treatment: CTGF [1, 3]: 12.8 fold
Individual variation of gene expression in TGFbeta1 treatment: ELN [1, 3]: 13.96 fold
Individual variation of gene expression in TGFbeta1 treatment: FN 1 transcr.v.1 [1, 3]: 6.98 fold
Individual variation of gene expression in TGFbeta1 treatment: MMP1, collagenase 1 [1, 3]: 7.02 fold
Individual variation of gene expression in TGFbeta1 treatment: MMP2 gelatinase [1, 3]: 4.77 fold
Individual variation of gene expression in TGFbeta1 treatment: MMP3 stromelysin [1, 3]: 5.8 fold
Individual variation of gene expression in TGFbeta1 treatment: MMP7 [1, 3]: 32.8 fold
Individual variation of gene expression in TGFbeta1 treatment: MMP10, stromelysin 2 [1, 3]: 45.93 fold
Individual variation of gene expression in TGFbeta1 treatment: NCOA1 [1, 3]: 5.64 fold
Individual variation of gene expression in TGFbeta1 treatment: NCOA2 [1, 3]: 1.58 fold
Individual variation of gene expression in TGFbeta1 treatment: NCOA3 [1, 3]: 6.21 fold
Individual variation of gene expression in TGFbeta1 treatment: NCOA5 [1, 3]: 4.56 fold
Individual variation of gene expression in TGFbeta1 treatment: NCOA6 [1, 3]: 2.82 fold
Individual variation of gene expression in TGFbeta1 treatment: NCOR1 [1, 3]: 7.31 fold
Individual variation of gene expression in TGFbeta1 treatment: PPARG [1, 3]: 17.71 fold
Individual variation of gene expression in TGFbeta1 treatment: TIMP1 [1, 3]: 5.73 fold
MMP1, collagenase 1 expression in TGFbeta1 treatment compared to control, from-to between individuals [1, 3]: (from −5.05 to 1.97) fold
MMP2 gelatinase expression in TGFbeta1 treatment compared to control, from-to between individuals [1, 3]: (from −2.51 to 2.26) fold
MMP3 stromelysin expression in TGFbeta1 treatment compared to control, from-to between individuals [1, 3]: (from −3.22 to 2.58) fold
MMP7 expression in TGFbeta1 treatment compared to control, from-to between individuals [1, 3]: (from −29.96 to 2.84) fold
MMP10, stromelysin 2 expression in TGFbeta1 treatment compared to control, from-to between individuals [1, 3]: (from −5.0 to 40.93) fold
NCOA1 expression in TGFbeta1 treatment compared to control, from-to between individuals [1, 3]: (from −2.76 to 2.88) fold
NCOA2 expression in TGFbeta1 treatment compared to control, from-to between individuals [1, 3]: (from −2.54 to −0.96) fold
NCOA3 expression in TGFbeta1 treatment compared to control, from-to between individuals [1, 3]: (from −4.81 to 1.4) fold
NCOA5 expression in TGFbeta1 treatment compared to control, from-to between individuals [1, 3]: (from −3.13 to 1.43) fold
NCOA6 expression in TGFbeta1 treatment compared to control, from-to between individuals [1, 3]: (from 1.64 to 1.18) fold
NCOR1 expression in TGFbeta1 treatment compared to control, from-to between individuals [1, 3]: (from −2.54 to 4.77) fold
PPARG expression in TGFbeta1 treatment compared to control, from-to between individuals [1, 3]: (from −16.51 to 1.2) fold
TIMP1 expression in TGFbeta1 treatment compared to control, from-to between individuals [1, 3]: (from −2.45 to 3.28) fold
Substance: TGFbeta1: well-characterized profibrotic factor

Substance: palmitoys pentapeptide-3 [Matrixyl]
combined score of expression stimulation of 5 genes (COL1A1, COL2A1, elastin, proteoglycan, TIMP1) per fibroblast isolate [2]: 3 groups of fibroblasts that have different response
